The values that follow come from US20250041237A1, “HEMOGLOBIN-BASED NANOPARTICLES” (priority 2023, published 2025).

Assay [1] has as its system murine or human neutrophils. Nature of the assay: Transwell chemotaxis assay. It counts as cell-based. The conditions noted are these: lipid radical scavenger added. An excerpt:
Transwell chemotaxis assay. Cytoplasmic membranes of S. aureus Newman, MRSA, or MDRSA were isolated from lysostaphin-induced protoplasts as previously described. Briefly, the bacterial cells were washed and resuspended in buffered hypertonic sucrose, followed by treatment with lysostaphin to digest the cell walls. The resulting protoplasts were recovered and lysed in the dilute buffer to extract cytoplasmic membranes. To evaluate the chemotaxis ability of human or murine neutrophils towards S. aureus membranes, a 96-transwell plate with 3 μm pores was used (Corning, USA). The bottom wells were loaded with 200 μL of the bacterial cell membrane in chemotaxis buffer (49% HBSS, 0.5% human serum albumin, 4 mM L-glutamine, and 49% RPMI 1640), while the top wells contained 2×10^5 neutrophils in 75 μL chemotaxis buffer. The plate was incubated in the dark at 37° C. with 5% CO2 for 1.5 h. Neutrophils that had migrated into the bottom wells were lysed with elastase assay buffer to release the neutrophil elastase. The activity of elastase was measured using the chromogenic substrate, N-methoxysuccinyl-Ala-Ala-Pro-Val-p-nitroanilide, at a final concentration of 1 mM. The absorbance at 405 nm was measured using a GloMax-Multi microplate multimode reader (Promega, WI, USA) to determine the number of migrated neutrophils.

A further assay deals with MRSA. Kind of assay: Mouse MRSA peritonitis model study. It counts as in vivo, ICR mice. The conditions noted are these: treated i.v. 6 h after MRSA i.p. inoculation; monitored two weeks.

As to `Clc1cccc(CN=C2Nc3ccccc3NC23CCNCC3)c1` [Liproxstatin-1], in assay [1], the “Hb-Naf@RBCM-induced neutrophil recruitment” value is “significantly inhibited”.
For `CN(C/C=C/c1ccccc1)Cc1cccc2ccccc12` [naftifine], the survival in the assay with MRSA was 12.5%.
